Results reported in US20230104578A1, “ANTI-ADRENOMEDULLIN (ADM) ANTIBODY OR ANTI-ADM ANTIBODY FRAGMENT OR ANTI-ADM NON-IG SCAFFOLD FOR USE IN THERAPY OR PREVENTION OF SHOCK” (ADRENOMED AG, priority 2020, published 2023).

What was measured:
[1] = test system: patients with septic shock; experiment: AdrenOSS-2 phase II clinical trial in septic shock with elevated adrenomedullin; format: in vivo, human
Excerpt: AdrenOSS-2 is a double-blind, placebo-controlled, randomized, multicenter, proof of concept and dose-finding phase II clinical trial to investigate the safety, tolerability and efficacy of the N-terminal ADM antibody named Adrecizumab in patients with septic shock and elevated adrenomedullin (Geven et al. BMJ Open 2019;9:e024475). In total, 301 patients with septic shock and bio-ADM concentration >70 pg/mL were randomized (2:1:1) to treatment with a single intravenous infusion over approximately 1 hour with either placebo (n=152), adrecizumab 2 ng/kg (n=72) or adrecizumab 4 ng/kg (n=77). All-cause mortality within 28 (90) days after inclusion was 25.8% (34.8%). Mean age was 68.4 years and 61% were male. For the per protocol analysis, n=294 patients remained eligible, and 14-day all-cause mortality rate was 18.5%.
In patients treated with Adrecizumab (both doses combined, per protocol population), a trend to lower short term mortality (14 days post admission) was observed compared to placebo (Hazard ratio (HR) 0.701 [0.408-1.21], p=0.100) (FIG. 8).
No such interaction was detected which in other words means, that the beneficial treatment effect was detectable for all patients independent of their pre-dose bio-ADM concentration.
This is further illustrated in Kaplan Meier Plots, where the patient populations were separated by their pre-dose bio-ADM concentration (below/above bio-ADM median) (see FIG. 11a and FIG. 11b).

[2] = test system: mice with CLP-induced sepsis; conditions: pre-treatment; cited from earlier work
endotoxemic rats = conditions: pre-treatment; cited from earlier work

Substance: Adrecizumab: humanized version of an N-terminal anti-ADM antibody; heavy chain SEQ ID NO: 32, light chain SEQ ID NO: 33
- HR, 14-day mortality vs placebo ([1]; DPP3 above 50 ng/mL, n=44): 1.69
- HR, 14-day mortality vs placebo ([1]; pre-dose DPP3 < 50 ng/mL, n=244): 0.426
- HR, 14-day mortality vs placebo ([1]; pre-dose DPP3 < 40, n=227): 0.385
- HR, 14-day mortality vs placebo ([1]; pre-dose DPP3 < 60, n=254): 0.449
- HR, 14-day mortality vs placebo ([1]; pre-dose DPP3 < 70, n=261): 0.546
- HR, 14-day mortality vs placebo ([1]; pre-dose DPP3 < 90, n=273): 0.606
- renal vascular leakage [2]: attenuated renal vascular leakage
- renal vascular leakage (endotoxemic rats): attenuated renal vascular leakage
